Data on two molecules can be found in publication PMC2637266, “Quantification of gamma-secretase modulation differentiates inhibitor compound selectivity between two substrates Notch and amyloid precursor protein” (Molecular Brain, 2008).

Test [1] relates to brain Aβ. Details: method as in PMID 11145990. The settings on record: transgenic mouse, human familial AD linked V717F APP; cited from earlier work.
Test [2] has as its system γ-secretase, AICD generation. Details: method as in PMID 16236717. The settings on record: 100 nM; cited from earlier work.
Test [3] deals with γ-secretase, NICD generation. Set-up: method as in PMID 16236717. The settings on record: 50 nM; cited from earlier work.
Test [4] concerns the target T1, γ-secretase cleavage of APP (Homo sapiens, UniProt P49768).
T1 construct: endogenous in cells; host or cells: HEK293 stably expressing Swedish mutant human APP695, transiently transfected with NotchΔE
The test is described as follows: Aβ ELISA from HEK293 cells transiently transfected with APP. The format is cell-based. The text has this:
Two cDNA constructs expressing chimeric APP and Notch were previously reported to generate chimeric "Notch-Aβ-like" (Nβ*) peptide. One construct has its transmembrane domain (TMD) replaced by the Notch TMD (APP-m-NOTCH) and the other with the juxtamembrane portion of the APP ectodomain (the α-secretase cleavage region) replaced by the corresponding sequence in Notch (APP-α-NOTCH). Taking advantage of different combinations of ELISA antibodies (see Methods), effects of cpd E on the generation of Aβ and Nβ* peptides from these chimeric APP-Notch substrates were quantified by ELISA.
Individual construct APP, APP-α-Notch or APP-m-Notch was transiently transfected into HEK293 cells. These chimeric protein expressing cells were treated with cpd E, and the levels of Aβ and Nβ* were measured by ELISA. […] Similar results were obtained when m-Notch was expressed in HEK293 cells. At least two magnitude of difference was observed, with EC50 for cpd E was […], compared to EC50 for Nβ* at ~1 nM (Fig. 3B).
Figure 3 Generation of Aβ and Nβ* from chimeric APP-Notch expressing cells. […] Levels of Nβ* in the media from cells expressing APP-α-Notch (dotted line) and levels of Aβ from APP expressing cells (solid line) were determined by ELISA. […] Levels of Aβ (solid line) and Nβ* (dotted line) were determined by ELISA. […]
A general note: An ELISA detects its analyte on a solid surface through an enzyme-linked reagent.

Test [5] deals with NICD generation. Set-up: method as in PMID 15319485. The settings on record: found as low as; read-out: IC50 for NICD generation in cultured cells; cited from earlier work.
Test [6] has as its system brain cortical γ-secretase. Set-up: method as in PMID 15857627. The conditions noted are these: guinea pig; cited from earlier work.
Test [7] relates to Aβ generation. Details: method as in PMID 10915801. The conditions noted are these: found as low as; read-out: IC50 for Aβ generation in cultured cells; cited from earlier work.

Like-named read-outs stand apart in the source and are kept apart here.

As to `C[C@H](NC(=O)Cc1cc(F)cc(F)c1)C(=O)N[C@H](C(=O)OC(C)(C)C)c1ccccc1` [DAPT, N-[N-(3,5-Difluorophenacetyl-L-alanyl)]-S-phenylglycine t-Butyl Ester], the “brain Aβ” value in test [1] is “dose-dependent, acute decrease in brain Aβ”. The “inhibition of AICD generation in vitro” value in test [2] is given as “partial inhibition”. Moreover, in test [3], the “inhibition of NICD generation in vitro” value is “partial inhibition”.
For orientation: EC50 means the midpoint of the concentration-response curve. For `C[C@H](NC(=O)Cc1cc(F)cc(F)c1)C(=O)N[C@H]1N=C(c2ccccc2)c2ccccc2N(C)C1=O` [cpd E, (S,S)-2-[2-(3,5-Difluorophenyl)-acetylamino]-N-(1-methyl-2-oxo-5-phenyl-2,3-dihydro-1H-benzo [e] [1,4]diazepin-3-yl)-propionamide], the EC50 in test [4] (EC for inhibiting 50% of Aβ production, APP expressing HEK293, α-Notch experiment, Fig. 3A) was less than 0.1 nM; in test [4] (HEK293, m-Notch experiment, Fig. 3B, read-out: EC50 for APP (Aβ)), approximately 0.03 nM. Further, the IC50 in test [5] is 1.7 nM; in test [7] it was 0.3 nM. Also, the “brain cortical γ-secretase activity” value in test [6] is recorded as “dose-dependent inhibition of brain cortical γ-secretase activity”. In test [6], the “plasma, CSF and brain Aβ levels” value is “decreases in plasma, CSF and brain Aβ levels”.
